Test results reported in patent publication USRE39420E1, “1,2-Diphenylpyrrole derivatives, their preparation and their therapeutic uses” (Sankyo Company, Limited, priority 1996, dated 2006).

How the values were obtained:
[1] = biological target: T1, Cyclooxygenase-1 from Ram Seminal Vesicle Microsomes (RSVM) (Ovis aries, UniProt P05979); assay: Inhibitory activity on cyclooxygenase-1 from ram seminal vesicle microsomes (PGE2 ELISA); assay type: biochemical; settings: PGE2 formation, read-out: Inhibitory Effect on COX-1[IC50(μM)]
T1 construct: ram seminal vesicles were homogenised by a blender; from tissue; host or cells: ram seminal vesicles (microsomes)
T1 sequence (P05979 25-600): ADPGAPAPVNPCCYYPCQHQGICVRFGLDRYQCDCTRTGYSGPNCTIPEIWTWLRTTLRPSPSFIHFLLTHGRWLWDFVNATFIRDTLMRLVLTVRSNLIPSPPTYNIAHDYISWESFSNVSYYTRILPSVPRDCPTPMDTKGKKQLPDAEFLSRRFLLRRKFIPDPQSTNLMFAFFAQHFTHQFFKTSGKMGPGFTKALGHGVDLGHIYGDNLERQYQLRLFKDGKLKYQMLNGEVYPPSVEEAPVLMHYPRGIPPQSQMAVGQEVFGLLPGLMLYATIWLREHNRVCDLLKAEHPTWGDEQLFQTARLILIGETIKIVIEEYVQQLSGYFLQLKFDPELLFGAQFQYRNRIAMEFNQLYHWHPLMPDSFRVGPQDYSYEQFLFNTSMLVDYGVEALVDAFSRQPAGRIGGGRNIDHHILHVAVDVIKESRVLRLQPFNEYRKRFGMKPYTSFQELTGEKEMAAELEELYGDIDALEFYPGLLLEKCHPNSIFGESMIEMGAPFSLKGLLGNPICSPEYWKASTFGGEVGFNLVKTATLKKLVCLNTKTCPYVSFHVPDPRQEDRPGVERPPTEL
Procedure: (§1) In order to prepare cyclooxygenase-1 (COX-1) microsomes, ram seminal vesicles were homogenised by a blender. To prepare cyclooxygenase-2 (COX-2) microsomes, an expression vector which contains the human COX-2 gene was introduced into COS cells. The cells were homogenised by sonication after 66 hours cultivation. Microsomes were then prepared in accordance with conventional methods. Enzyme activity was assayed as follows. The assay mixture contained 10 μl of COX-1 or COX-2 microsomes (5 to 15 μg), 2 μl of sample dissolved in dimethyl sulfoxide, 50 μl of 200 mM Tris (pH 7.6), 10 μl of 20 mM reduced glutathione, 10 μl of 10 mM epinephrine, and 15.5 μl of distilled water. After preincubation at 37° C. for 15 minutes, 2.5 μl of 10 μM arachidonic acid (dissolved in ethanol) were then added to the mixture (final volume of 100 μl) and allowed to react at 37° C. for 30 minutes. The final dimethyl sulfoxide and ethanol concentrations were 2% and 2.5%, respectively. To the reaction mixture were then added 15 μl of ice-cooled 0.2M HCl to stop the reaction, and the mixture was cooled at 4° C. for 5 minutes. 15 μl of a 0.2M aqueous solution of sodium hydroxide were then added to the reaction mixture to neutralise the pH. The amount of PGE2, in the reaction mixture was measured using a commercially available ELISA kit (Cayman). IC50 was calculated from the regression line determined by the inhibition rates of PGE2 formation and the concentrations of the compound.

[2] = biological target: T2, Human Recombinant Cyclooxygenase-2 (Homo sapiens, UniProt P35354); assay: Inhibitory activity on human recombinant cyclooxygenase-2 microsomes from COS cells (PGE2 ELISA); assay type: biochemical; settings: for IC50: human recombinant COX-2 microsomes, PGE2 formation, read-out: Inhibitory Effect on COX-2 [IC50 (μM)]; for Selectivity (COX-1/COX-2): ratio of IC50 COX-1/COX-2
T2 construct: made in house; host or cells: COS cells (transient expression; microsomes prepared after 66 hours)
T2 sequence (P35354 18-604): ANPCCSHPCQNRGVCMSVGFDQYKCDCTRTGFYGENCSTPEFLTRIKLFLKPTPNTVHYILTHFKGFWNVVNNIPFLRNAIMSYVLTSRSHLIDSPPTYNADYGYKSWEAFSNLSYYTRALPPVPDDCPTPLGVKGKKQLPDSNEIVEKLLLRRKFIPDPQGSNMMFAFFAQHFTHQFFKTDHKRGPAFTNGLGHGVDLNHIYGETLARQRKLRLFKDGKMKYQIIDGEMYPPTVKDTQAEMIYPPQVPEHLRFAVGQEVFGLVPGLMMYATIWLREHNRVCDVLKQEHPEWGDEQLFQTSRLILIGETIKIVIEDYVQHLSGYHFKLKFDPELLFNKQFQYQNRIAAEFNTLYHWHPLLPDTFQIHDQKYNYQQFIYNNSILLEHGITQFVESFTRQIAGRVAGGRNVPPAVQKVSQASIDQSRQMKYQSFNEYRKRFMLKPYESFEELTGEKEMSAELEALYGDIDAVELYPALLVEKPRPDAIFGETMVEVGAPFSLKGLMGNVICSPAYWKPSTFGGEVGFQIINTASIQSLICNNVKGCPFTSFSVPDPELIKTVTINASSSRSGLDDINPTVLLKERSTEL
Procedure: In order to prepare cyclooxygenase-1 (COX-1) microsomes, ram seminal vesicles were homogenised by a blender. To prepare cyclooxygenase-2 (COX-2) microsomes, an expression vector which contains the human COX-2 gene was introduced into COS cells. The cells were homogenised by sonication after 66 hours cultivation. Microsomes were then prepared in accordance with conventional methods.
Enzyme activity was assayed as follows.
as §1, with “The” for “In order to prepare cyclooxygenase-1 (COX-1) microsomes, ram seminal vesicles were homogenised by a blender. To prepare cyclooxygenase-2 (COX-2) microsomes, an expression vector which contains the human COX-2 gene was introduced into COS cells. The cells were homogenised by sonication after 66 hours cultivation. Microsomes were then prepared in accordance with conventional methods. Enzyme activity was assayed as follows. The”

[3] = system: Carrageenan-induced Paw Edema in rats; assay: Carrageenan-induced paw edema test; assay type: in vivo, Wistar-Imamichi rats; settings: Rattus norvegicus, oral, 3 hours after carrageenan, read-out: Inhibition Rate (%)
Procedure: The same test compounds were subjected to the test as those in the Randall-Selitto test of Experiment 3. Wistar-Imamichi rats (males, 6 week old, body weights: 110-120 g) were used in this test.
The method of Winter, et al. [Proc. Soc. Exp. Biol. Med. 111, 544-547, (1962)] was slightly modified to perform the test [Sankyo Annual Research Report 39, 77-111, (1989)]. The rats were fasted for 16 hours prior to use. Inflammatory edema was induced by the subcutaneous injection of 0.05 ml of a 1% carrageenan (Viscarin 402) solution into the right hind paw of the animal. The test compounds were administered orally 30 minutes before injection of carrageenan. The volume of the right hind foot was measured with a Plethysmometer (Trade mark) (Ugo-Basile Co.) just before administration of the test compound and 3 hours after injection of carrageenan to determine the edema intensity [(right foot volume after 3 hours/right foot volume before injection)-1].

gastric mucosa = assay: Irritative effect on gastric mucosa; assay type: in vivo, Wistar rats; settings: oral; dose producing 50% incidence of gastric ulcers, 3.5 hours after dosing
Procedure: Experiments were performed according to the method described by Jahn and Adrian [Arzneim.-Forsch. 19, 36, (1969)]. Male Wistar rats weighing approximately 120 g were fasted for 16 hours before the experiment. The drugs were administered orally to rats as described in Experiment 3. Three and the half hours after dosing, the animals were killed under ether-anesthesia and the stomachs were placed into 1% of formalin. The stomach was opened by cutting along the greater curvature and the number and length of lesions were counted under a microscope (6.3×10). The ulcerogenicity in each animal was assessed according to Hitchens et. al. [Pharmacologist 9, 242, (1967)]. Incidence was determined as the rate of rats with 4 or more ulcers of more than 0.5 mm length, and UD50's (doses producing 50% incidence) were calculated from the incidence and the dose by probit (=probability unit) method.

[4] = system: yeast-inflamed pain in rats; assay: Analgesic effect on yeast-inflamed pain in rats (Randall-Selitto method); assay type: in vivo, Wistar-Imamichi rats; settings: Rattus norvegicus, oral, pain threshold 0.5, 1 and 2 hours after administration, read-out: Efficacy Rate (No. of animals in which drug was effective/No. of animals used in test) (converted)
Procedure: The compound was suspended in 0.5%tragacanth and administered orally at a volume of 5 ml/kg. The control group was administered with 0.5% tragacanth only as a vehicle.
Wistar-Imamichi rats (males, 5 week old, body weights: 80-100 g) were used in this test.
The test was conducted in accordance with the method of Winter and Flataker [J. Pharmacol. Exp. Ther. 150, 165-171, (1965)], which is a modification of the original method of Randall and Selitto [Arch. Int. Pharmacodyn. Ther. 111, 405-419, (1957)]. The rats were fasted for 16 hours prior to use. Inflammation was induced by subcutaneous injection of 0.1 ml of a suspension of 20% beer yeast (Sigma) into the right hind footpad of the animal. After 4.5 hours, increasing pressure was applied to the inflamed footpad at a constant speed using an Analgesy meter (Trade mark) (Ugo-Basile Co.).
First the average of pain threshold values at each time point (0.5, 1, and 2 hr) was calculated in a control group. If a pain threshold value exceeded 2 times the control average value at the same time point even once in the drug-treated groups, then the animal was considered to indicate efficacy. Efficacy rates of the drug were estimated by the evaluation method of Blake [J. Pharm. Pharm. 19, 367-373, (1967)].

Row | Structure (SMILES) | IC50 [1] [µM] | IC50 [2] [µM] | Selectivity (COX-1/COX-2) [2] | inhibition in vivo at 50 mg/kg [3] [%] | UD50 (gastric mucosa) [mg/kg] | responders at 12.5 mg/kg [4] [%]
1 | Cc1cc(-c2ccc(S(N)(=O)=O)cc2)n(-c2ccc(F)cc2)c1 [Example 20, 1-(4-Fluorophenyl)-4-methyl-2-(4-sulfamoylphenyl) pyrrole] | 85 | 0.023 | 3696 | – | – | –
2 | Cc1cc(-c2ccc(S(N)(=O)=O)cc2)n(-c2ccc(Cl)c(Cl)c2)c1 [Example 103] | 3.7 | 0.01 | 370 | 56 | >100 | –
3 | Cc1cc(-c2ccc(S(N)(=O)=O)cc2)n(-c2ccc(F)c(Cl)c2)c1 [Example 108] | 6 | < 0.01 | >600 | 58 | – | –
4 | COc1ccc(-c2cc(C)cn2-c2ccc(S(C)(=O)=O)cc2)cc1 [Example 80, 2-(4-Methoxyphenyl)-4-methyl-1-(4-methylsulfonylphenyl)pyrrole] | 25 | 0.011 | 2273 | – | >100 | –
5 | Cc1cc(-c2ccc(Cl)cc2)n(-c2ccc(S(N)(=O)=O)cc2)c1 [Example 65, 2-(4-Chlorophenyl)-4-methyl-1-(4-sulfamoylphenyl) pyrrole] | 13 | 0.015 | 867 | – | >100 | 100
6 | Cc1ccc(-n2cc(C)cc2-c2ccc(S(N)(=O)=O)cc2)cc1 [Example 58, 4-Methyl-1-(4-methylphenyl)-2-(4-sulfamoylphenyl) pyrrole] | 6.3 | 0.019 | 332 | – | – | –
7 | Cc1cc(-c2ccc(S(N)(=O)=O)cc2)n(-c2ccc(F)cc2)c1Cl [Example 38, 5-Chloro-1-(4-fluorophenyl)-4-methyl-2-(4-sulfamoylphenyl)pyrrole] | > 100 | 0.023 | >4348 | – | – | –
8 | COc1ccc(-n2cc(C)cc2-c2ccc(S(N)(=O)=O)cc2)cc1 [Example 62, 1-(4-Methoxyphenyl)-4-methyl-2-(4-sulfamoylphenyl)pyrrole] | 1.5 | 0.0097 | 153 | 55 | – | 100
9 | Cc1cc(-c2ccc(S(N)(=O)=O)cc2)n(-c2ccc3c(c2)OCO3)c1 [Example 109] | 3.8 | 0.023 | 165 | 77 | – | –
10 | COc1ccc(-c2c(C)ccn2-c2ccc(S(N)(=O)=O)cc2)cc1 [Example 73, 2-(4-Methoxyphenyl)-3-methyl-1-(4-sulfamoylphenyl)pyrrole] | 3 | 0.025 | 120 | 72 | – | –
11 | Cc1cc(-c2ccc(S(C)(=O)=O)cc2)n(-c2ccc(C)c(C)c2)c1 [Example 56, 4-Methyl-1-(3,4-dimethylphenyl)-2-(4-methylsulfonylphenyl)pyrrole] | > 100 | 0.018 | >5556 | – | – | –
